Experimental data taken from patent US11497751B2, “Modulators of Rho-associated protein kinase” (Redx Pharma PLC, priority 2018, dated 2022).

Target: T1, N-terminal 6His-tagged ROCK2 catalytic domain 11-552 (Homo sapiens, UniProt O75116)
T1 construct: N-terminal 6His-tagged ROCK2 catalytic domain 11-552; 6His (N); purchased Dundee University, UK; host or cells: baculovirus expression system
Experiment: ROCK2 binding activity: ROCK2 inhibition, ADP-Glo Kinase Assay
Assay type: biochemical
Settings: 1.25 nM ROCK2, 100 μM long S6 peptide, 20 μM ATP; 1 hour pre-incubation; read-out: ADP-Glo kinase activity assay ROCK2 Category
Method: Assay for ROCK2 inhibition was performed using the protein construct N-terminal 6His-tagged ROCK2 catalytic domain 11-552 (Dundee University, UK). Protein was purified from a baculovirus expression system. Long S6 peptide ([…]) was used as substrate. Kinase reactions were carried out in 15 μl volume in a 96-well plate (black, half area) using 1.25 nM constitutively active ROCK2 kinase, 100 μM long S6 peptide, 20 μM ATP and test compound in DMSO (or DMSO only for controls). The final concentration of DMSO was 1%. Assay buffer was 50 mM HEPES pH 7.5 supplemented with 0.2 mM EDTA, 10 mM magnesium acetate, 0.01% Tween-20, 1 mM DTT and 0.01% BSA. Test compounds were pre-incubated with ROCK2 kinase for 1 hour before addition of ATP and long S6 peptide. After incubation for a further 1 hour, the amount of ADP produced was measured using ADP-Glo Kinase Assay (Promega) as per manufacturer's instructions. The luminescence was measured on a PHERAstar FS (BMG Labtech). The concentration of test compound required to inhibit ADP production by 50% (the IC50) was calculated using a four-parameter logistic function with software by Dotmatics.
The category “+” refers to compounds with a ROCK2 IC50 value of >10 μM. The category “++” refers to compounds with a ROCK2 IC50 value of 10 to 3 μM. The category “+++” refers to compounds with a ROCK2 IC50 value of 3 to 0.3 μM. The category “++++” refers to compounds with a ROCK2 IC50 value of <0.3 μM.

T1 sequence (O75116 11-552): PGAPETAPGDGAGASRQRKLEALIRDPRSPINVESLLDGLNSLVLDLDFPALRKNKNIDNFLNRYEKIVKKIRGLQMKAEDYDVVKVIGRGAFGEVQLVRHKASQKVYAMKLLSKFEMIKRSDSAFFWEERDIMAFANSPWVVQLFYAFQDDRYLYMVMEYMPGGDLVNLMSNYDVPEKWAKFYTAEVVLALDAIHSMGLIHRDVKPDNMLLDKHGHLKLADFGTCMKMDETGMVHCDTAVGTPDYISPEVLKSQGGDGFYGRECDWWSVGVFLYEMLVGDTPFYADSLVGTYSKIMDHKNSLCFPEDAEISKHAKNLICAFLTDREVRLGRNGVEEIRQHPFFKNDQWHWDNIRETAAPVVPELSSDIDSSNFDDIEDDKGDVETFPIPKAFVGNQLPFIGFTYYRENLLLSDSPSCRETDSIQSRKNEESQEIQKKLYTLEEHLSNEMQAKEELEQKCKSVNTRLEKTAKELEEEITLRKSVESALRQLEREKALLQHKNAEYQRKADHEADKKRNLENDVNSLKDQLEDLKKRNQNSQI

Row | SMILES | IC50
1 | Cn1nc(-c2ccc(S(=O)(=O)N3CCOCC3)cc2)nc1Nc1ccc2[nH]ncc2c1Cl [Example 78] | 3 to 10 µM
2 | Cn1nc(C2=CCCNC2)nc1Nc1ccc2[nH]ncc2c1Cl [Example 81] | 3 to 10 µM
3 | CN(C)C(=O)c1ccc(-c2nc(Nc3ccc4[nH]ncc4c3Cl)n(C)n2)cc1 [Example 82] | 0.3 to 3 µM
4 | CCC(=O)Nc1ccc(-c2nc(Nc3ccc4[nH]ncc4c3Cl)n(C)n2)cc1OC [Example 83] | < 0.3 µM
5 | Cn1nc(C2=CCC(N)CC2)nc1Nc1ccc2[nH]ncc2c1Cl (stereo not drawn) [Example 84] | > 10 µM
6 | COCCOc1cccc(-c2nc(Nc3ccc4[nH]ncc4c3Cl)n(C)n2)c1 [Example 85] | < 0.3 µM
7 | COc1ccc(-c2nc(Nc3ccc4[nH]ncc4c3Cl)n(C)n2)cc1Cl [Example 86] | < 0.3 µM
8 | COc1cc(-c2nc(Nc3ccc4[nH]ncc4c3Cl)n(C)n2)ccc1NCC(=O)NC(C)C [Example 87] | < 0.3 µM
9 | Cn1nc(-c2ccc(CO)cc2)nc1Nc1ccc2[nH]ncc2c1Cl [Example 88] | 0.3 to 3 µM
10 | Cn1nc(-c2ccccc2O)nc1Nc1ccc2[nH]ncc2c1Cl [Example 89] | < 0.3 µM
11 | CCOC(=O)c1cncc(-c2nc(Nc3ccc4[nH]ncc4c3Cl)n(C)n2)c1 [Example 90] | < 0.3 µM
12 | Cn1nc(-c2ccc(O)cc2)nc1Nc1ccc2[nH]ncc2c1Cl [Example 91] | < 0.3 µM
13 | Cn1nc(-c2cccnc2)nc1Nc1ccc2[nH]ncc2c1Cl [Example 93] | 3 to 10 µM
14 | CN(C)CCNC(=O)c1ccc(-c2nc(Nc3ccc4[nH]ncc4c3Cl)n(C)n2)cc1 [Example 94] | < 0.3 µM
15 | Cn1nc(-c2ccco2)nc1Nc1ccc2[nH]ncc2c1Cl [Example 96] | 0.3 to 3 µM
16 | CN1CCc2cc(-c3nc(Nc4ccc5[nH]ncc5c4Cl)n(C)n3)ccc2C1=O [Example 97] | < 0.3 µM
17 | Cn1nc(C2=CCOCC2)nc1Nc1ccc2[nH]ncc2c1Cl [Example 98] | > 10 µM
18 | COc1ccc(-c2nc(Nc3ccc4[nH]ncc4c3Cl)n(C)n2)cc1 [Example 99] | < 0.3 µM
19 | COc1cc(-c2nc(Nc3ccc4[nH]ncc4c3Cl)n(C)n2)ccc1O [Example 101] | < 0.3 µM
20 | Cn1nc(-c2ccc(N3CCOCC3)cc2)nc1Nc1ccc2[nH]ncc2c1Cl [Example 102] | < 0.3 µM
21 | CC(C)Oc1ccc(-c2nc(Nc3ccc4[nH]ncc4c3Cl)n(C)n2)cn1 [Example 103] | < 0.3 µM

Row | SMILES | IC50
22 | COc1ccc(-c2nc(Nc3ccc4[nH]ncc4c3Cl)n(C)n2)c(F)c1 [Example 104] | < 0.3 µM
23 | Cn1nc(-c2ccc(CN3CCOCC3)cc2)nc1Nc1ccc2[nH]ncc2c1Cl [Example 105] | < 0.3 µM
24 | Cn1nc(-c2ccc(C(=O)NCC3CCCO3)cc2)nc1Nc1ccc2[nH]ncc2c1Cl (stereo not drawn) [Example 106] | < 0.3 µM
25 | Cc1cc(-c2nc(Nc3ccc4[nH]ncc4c3Cl)n(C)n2)n(C)n1 [Example 107] | 0.3 to 3 µM
26 | Cn1nc(C2=CCCC2)nc1Nc1ccc2[nH]ncc2c1Cl [Example 108] | 0.3 to 3 µM
27 | Cc1ccc(-c2nc(Nc3ccc4[nH]ncc4c3Cl)n(C)n2)cn1 [Example 109] | 3 to 10 µM
28 | Cn1nc(-c2cccc(C#N)c2)nc1Nc1ccc2[nH]ncc2c1Cl [Example 110] | 0.3 to 3 µM
29 | Cn1nc(-c2cn[nH]c2)nc1Nc1ccc2[nH]ncc2c1Cl [Example 111] | 0.3 to 3 µM
30 | CC(C)n1nccc1-c1nc(Nc2ccc3[nH]ncc3c2Cl)n(C)n1 [Example 112] | 0.3 to 3 µM
31 | COCc1cccc(-c2nc(Nc3ccc4[nH]ncc4c3Cl)n(C)n2)c1 [Example 113] | > 10 µM
32 | COc1ccc(F)c(-c2nc(Nc3ccc4[nH]ncc4c3Cl)n(C)n2)c1 [Example 114] | < 0.3 µM
33 | COCCn1cc(-c2nc(Nc3ccc4[nH]ncc4c3Cl)n(C)n2)cn1 [Example 115] | < 0.3 µM
34 | Cn1nc(-c2cnn(CCN3CCOCC3)c2)nc1Nc1ccc2[nH]ncc2c1Cl [Example 117] | 0.3 to 3 µM
35 | COC(=O)c1ccc(-c2nc(Nc3ccc4[nH]ncc4c3Cl)n(C)n2)cc1OC [Example 118] | < 0.3 µM
36 | Cn1ccc(-c2nc(Nc3ccc4[nH]ncc4c3Cl)n(C)n2)n1 [Example 119] | 3 to 10 µM
37 | Cn1nc(-c2cccc(N)c2)nc1Nc1ccc2[nH]ncc2c1Cl [Example 120] | 3 to 10 µM
38 | Cn1nc(-c2c[nH]c3ccncc23)nc1Nc1ccc2[nH]ncc2c1Cl [Example 121] | 3 to 10 µM
39 | Cn1nc(-c2ccc(OCCn3ccc(=O)cc3)cc2)nc1Nc1ccc2[nH]ncc2c1Cl [Example 122] | < 0.3 µM
40 | Cn1nc(-c2ccccc2N)nc1Nc1ccc2[nH]ncc2c1Cl [Example 123] | 0.3 to 3 µM
41 | CNC(=O)c1ccc(-c2nc(Nc3ccc4[nH]ncc4c3Cl)n(C)n2)cn1 [Example 124] | < 0.3 µM
42 | Cn1nc(-c2ccc(S(N)(=O)=O)cc2)nc1Nc1ccc2[nH]ncc2c1Cl [Example 125] | < 0.3 µM

Row | SMILES | IC50
43 | CN(C)c1ccc(-c2nc(Nc3ccc4[nH]ncc4c3Cl)n(C)n2)cn1 [Example 127] | 0.3 to 3 µM
44 | Cn1nc(-c2ccc(CN)c(F)c2)nc1Nc1ccc2[nH]ncc2c1Cl [Example 128] | < 0.3 µM
45 | Cn1nc(-c2cncc(O)c2)nc1Nc1ccc2[nH]ncc2c1Cl [Example 129] | 0.3 to 3 µM
46 | Cn1nc(-c2cncc(N)c2)nc1Nc1ccc2[nH]ncc2c1Cl [Example 130] | < 0.3 µM
47 | Cn1nc(-c2ccc(C(N)=O)cc2)nc1Nc1ccc2[nH]ncc2c1Cl [Example 131] | < 0.3 µM
48 | Cn1nc(-c2cccc(N)c2)nc1Nc1ccc2[nH]ncc2c1Cl [Example 132] | 0.3 to 3 µM
49 | Cn1nc(-c2ccnc(N)c2)nc1Nc1ccc2[nH]ncc2c1Cl [Example 133] | 0.3 to 3 µM
50 | Cn1nccc1-c1nc(Nc2ccc3[nH]ncc3c2Cl)n(C)n1 [Example 134] | 0.3 to 3 µM
51 | CNC(=O)c1cccc(-c2nc(Nc3ccc4[nH]ncc4c3Cl)n(C)n2)c1 [Example 135] | < 0.3 µM
52 | Cn1nc(-c2cccc(OC(F)(F)F)c2)nc1Nc1ccc2[nH]ncc2c1Cl [Example 136] | 0.3 to 3 µM
53 | Cn1nc(-c2ccc(Oc3ccccc3)cc2)nc1Nc1ccc2[nH]ncc2c1Cl [Example 137] | 0.3 to 3 µM
54 | Cn1nc(-c2ccc(OC(F)(F)F)cc2)nc1Nc1ccc2[nH]ncc2c1Cl [Example 138] | < 0.3 µM
55 | COc1cc(-c2nc(Nc3ccc4[nH]ncc4c3C)n(C)n2)ccc1OCC(=O)NC1CCNC1 (stereo not drawn) [Example 141] | < 0.3 µM
56 | COc1cc(-c2nc(Nc3cc4cn[nH]c4cc3Cl)n(C)n2)ccc1C(=O)NCC(F)(F)F [Example 144] | 3 to 10 µM
57 | COc1cc(-c2nc(Nc3ccc4[nH]ncc4c3Cl)n(C(C)C)n2)ccc1OCC(=O)NC(C)C [Example 145] | < 0.3 µM
58 | CC(C)NC(=O)COc1ccc(-c2nc(Nc3ccc4[nH]ncc4c3)n(-c3ccccc3F)n2)cc1 [Example 146] | < 0.3 µM
59 | COc1cc(-c2nnc(Nc3ccc4[nH]ncc4c3)n2-c2ccccn2)ccc1OCC(=O)NC(C)C [Example 147] | < 0.3 µM
60 | CC(C)NC(=O)COc1ccc(-c2nnc(Nc3ccc4[nH]ncc4c3)n2-c2ccccn2)cc1 [Example 148] | < 0.3 µM
61 | COc1cc(-c2nc(Nc3ccc4[nH]ncc4c3Cl)n(-c3ccccc3)n2)ccc1OCC(=O)NC1CCNC1 (stereo not drawn) [Example 149] | < 0.3 µM
62 | COc1cc(-c2nc(Nc3ccc4[nH]ncc4c3Cl)n(-c3ccccn3)n2)ccc1OCC(=O)NC(C)C [Example 151] | > 10 µM
63 | COc1cc(-c2nc(Nc3ccc4[nH]ncc4c3Cl)n(-c3ccncc3)n2)ccc1OCC(=O)NC(C)C [Example 152] | < 0.3 µM
